Structures are written as SMILES.

T1 sequence (Q92633 whole entry): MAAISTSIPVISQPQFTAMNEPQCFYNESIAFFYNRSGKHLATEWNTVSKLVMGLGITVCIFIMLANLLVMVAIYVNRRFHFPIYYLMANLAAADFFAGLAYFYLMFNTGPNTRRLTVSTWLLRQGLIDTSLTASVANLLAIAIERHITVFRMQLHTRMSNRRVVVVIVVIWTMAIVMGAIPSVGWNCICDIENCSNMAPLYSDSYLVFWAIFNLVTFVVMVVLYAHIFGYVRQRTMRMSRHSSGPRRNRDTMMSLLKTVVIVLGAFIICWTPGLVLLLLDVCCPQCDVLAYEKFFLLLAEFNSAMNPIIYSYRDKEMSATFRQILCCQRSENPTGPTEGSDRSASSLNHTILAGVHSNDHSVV

The test concerns the target T1, human LPAR1 (Homo sapiens, UniProt Q92633).
T1 construct: host or cells: TangoEDG2-bla U2OS cells
The experiment in a line: Arrestin assay (Arrestin Reporter EDG2-bla U2OS), inhibition of LPA-stimulated signal. It is filed as cell-based. The settings on record: TangoEDG2-bla U2OS cells expressing human LPAR1; 0.25 μM LPA; read-out: Arrestin Reporter EDG2-bla U2OS Human Merged IC50. The procedure: The inhibitory activity of compounds 15, 62, 77, 84 and 169 against LPAR1 was measured using an Arrestin assay in U2OS cells expressing human LPAR1.
FreeStyle media was warmed in a 37° C. water bath. Cryo-preserved vial(s) of TangoEDG2-bla U2OS cells were rapidly thawed in a 37° C. water bath. The thawed cells were added to FreeStyle media and cells were pelleted at 300×g for 5 minutes. The supernatant was aspirated, and cells were resuspended in FreeStyle media. Cell density was adjusted to 0.25×10^6 cells/mL. Cells (1×10^4 in 40 μL) were added to each well of Greiner 384 well black cell plate(s). Cell plate(s) were placed in a humidified 37° C./5% CO2 incubator for 18-20 hours. Dilutions of test compound were prepared at 6× final concentration; 12-point, 3-fold dilutions using HH Buffer (1×HBSS plus 20 mM HEPES). The 6× test compound was then added to the cell plate(s) at 10 μL/well. The final concentration ranged from 10 μM to 0.00006 μM. Cell plate(s) were incubated in a humidified 37° C./5% CO2 incubator for 1 hour. During the incubation, 6×LPA was prepared at 1.5 μM in 0.1% BSA HH Buffer. After the 1-hour incubation of test compound with cells, the LPA was added to the cell plate(s) at 10 μL/well (final LPA concentration of 0.25 μM). Cell plate(s) were returned to a humidified 37° C./5% CO2 incubator for 3 hours. The Development solution was made up per the LiveBLAzerFRET B/G kit protocol. The Development solution was added to the cell plate(s) at 10 μL/well. Cell plates were incubated in the dark at room temperature for 2 hours. Plate(s) were read on an Envision Plate Reader (Perkin Elmer) to read fluorescence; excitation at 409 nm with emission at 460 nm and 530 nm. Raw Data for analysis is the ratio of emission at 460 nm divided by emission 530 nm. The formula used to determine % Inhibition is as follows (1−(Raw Data−Low Average)/(High Average−Low Average))*100. Percent Inhibition was plotted to determine IC50 value with GraphPad Prism 9.5.0 software using Variable slope 4-parameter curve fit analysis.
Additional compounds of the present disclosure were synthesized in a manner similar to the compounds described above and understood by a person of ordinary skill in the art. The inhibitory activity of the compounds of the present disclosure against LPAR1 was measured using the above-referenced Arrestin Assay protocol.
What is called IC50 is the concentration that gives 50% inhibition. Take `CC(C)c1ccnn1C1(C(=O)Nc2ccc(Cl)cc2OC(F)F)CCN([C@H]2C[C@@]3(C[C@H]3C(=O)O)C2)CC1` (relative stereo) [Compound 106, rel-(1R,3r,5S)-5-[4-1[4-chloro-2-(difluoromethoxy)phenyl]carbamoyl]-4-(5-isopropylpyrazol-1-yl)-1-piperidyl]spiro[2.3]hexane-2-carboxylic acid]: the IC50 worked out at 0.0481 µM.
Turning to `CC(C)c1ccnn1C1(C(=O)Nc2ccc(Cl)cc2OC(F)F)CCN(C[C@@H](C(=O)O)C2CCOCC2)CC1` (single isomer, unassigned) [Compound 14, (2.5)-3-[4-[[4-chloro-2-(difluoromethoxy)phenyl]carbamoyl]-4-(5-isopropylpyrazol-1-yl)-1-piperidyl]-2-tetrahydropyran-4-yl-propanoic acid], the IC50 amounted to 0.0339 µM.
In the case of `COc1cccc([C@H](CN2CCC(C(=O)Nc3ccc(Cl)cc3OC(F)F)(n3nccc3C(C)C)CC2)C(=O)O)c1` (single isomer, unassigned) [Compound 32], the IC50 amounted to 0.00311 µM.
For the compound `CC(C)c1ccnn1C1(C(=O)Nc2ccc(Cl)cc2OC(F)F)CCN(C[C@@]2(C(=O)O)CCCCO2)CC1` (single isomer, unassigned) [Compound 38], the IC50 was found to be 0.0188 µM.
Consider `CC(C)c1ccnn1C1(C(=O)Nc2ccc(Cl)cc2OC(F)F)CCN(C[C@]2(C(=O)O)CCCCO2)CC1` (single isomer, unassigned) [Compound 39, (2.5)-2-[[4-[[4-chloro-2-(difluoromethoxy)phenyl]carbamoyl]-4-(5-isopropylpyrazol-1-yl)-1-piperidyl]methyl]tetrahydropyran-2-carboxylic acid], for which the half-inhibitory concentration (IC50) was 0.013 µM.
For `CC(C)c1ccnn1C1(C(=O)Nc2ccc(Cl)cc2OC(F)F)CCN([C@H]2C[C@@H](C(=O)O)C2)CC1` (single isomer, unassigned) [Compound 61, (1s,3s)-3-[4-[[4-chloro-2-(difluoromethoxy)phenyl]carbamoyl]-4-(5-isopropylpyrazol-1-yl)-1-piperidyl]cyclobutanecarboxylic acid] the value was 0.0345 µM; for `CC(C)c1ccnn1C1(C(=O)Nc2ccc(Cl)cc2OC(F)F)CCN(C[C@@](C)(C(=O)O)C2CCOCC2)CC1` (single isomer, unassigned) [Compound 78, (2.5)-3-[4-[[4-chloro-2-(difluoromethoxy)phenyl]carbamoyl]-4-(5-isopropylpyrazol-1-yl)-1-piperidyl]-2-methyl-2-tetrahydropyran-4-yl-propanoic acid], 0.0483 µM; for `CC(C)c1ccnn1C1(C(=O)Nc2ccc(Cl)cc2OC(F)F)CCN(C[C@]2(C(=O)O)CC[C@@H](O)CC2)CC1` (single isomer, unassigned) [Compound 95, (1s,4s)-1-[[4-[[4-chloro-2-(difluoromethoxy)phenyl]carbamoyl]-4-(5-isopropylpyrazol-1-yl)-1-piperidyl]methyl]-4-hydroxy-cyclohexanecarboxylic acid], 0.0117 µM.
For `COC[C@@H](CN1CCC(C(=O)Nc2ccc(Cl)cc2OC(F)F)(n2nccc2C(C)C)CC1)C(=O)O` (single isomer, unassigned) [Compound 119] the value was 0.0155 µM.
With `CC(C)c1c(F)cnn1C1(C(=O)Nc2ccc(Cl)cc2OC(F)F)CCN([C@H]2C[C@@H](C(=O)O)C2)CC1` (single isomer, unassigned) [Compound 123, (1s,3s)-3-[4-[[4-chloro-2-(difluoromethoxy)phenyl]carbamoyl]-4-(4-fluoro-S-isopropyl-pyrazol-1-yl)-1-piperidyl]cyclobutanecarboxylic acid], the IC50 was determined as 0.0389 µM.
As to `CC(C)c1ccnn1C1(C(=O)Nc2ccc(Cl)cc2OC(F)F)CCN([C@@H]2CO[C@H](C(=O)O)C2)CC1` (single isomer, unassigned) [Compound 137], the IC50 turned out to be 0.0572 µM.
For `CC(C)c1ccnn1C1(C(=O)Nc2ccc(Cl)cc2OC(F)F)CCN([C@H]2CO[C@H](C(=O)O)C2)CC1` (single isomer, unassigned) [Compound 140] the value was 0.132 µM.
For `CC(C)c1ccnn1C1(C(=O)Nc2ccc(Cl)cc2OC(F)F)CCN(C[C@@H](C(=O)O)[C@H]2CCOC2)CC1` (single isomer, unassigned) [Compound 149] the value was 0.0345 µM; for `CC(C)c1ccnn1C1(C(=O)Nc2ccc(Cl)cc2OC(F)F)CCN(C[C@@H](C(=O)O)N2CCOCC2)CC1` (single isomer, unassigned) [Compound 150, (25)-3-[4-[[4-chloro-2-(difluoromethoxy)phenyl]carbamoyl]-4-(5-isopropylpyrazol-1-yl)-1-piperidyl]-2-morpholino-propanoic acid], 0.0995 µM.
For `CC(C)c1ccnn1C1(C(=O)Nc2ccc(Cl)cc2OC(F)F)CCN(C[C@@H](C(=O)O)[C@@H]2CCOC2)CC1` (single isomer, unassigned) [Compound 151] the value was 0.075 µM.
For the compound `CC(C)c1ccnn1C1(C(=O)Nc2ccc(Cl)cc2OC(F)F)CCN(C[C@H](C(=O)O)[C@@H]2CCOC2)CC1` (single isomer, unassigned) [Compound 152], the IC50 came out at 0.0411 µM.
For `CC(C)c1ccnn1C1(C(=O)Nc2ccc(Cl)cc2OC(F)F)CCN(C[C@H](C(=O)O)c2cnn(C)c2)CC1` (single isomer, unassigned) [Compound 154] the value was 0.0641 µM; for `CC(C)c1ccnn1C1(C(=O)Nc2ccc(Cl)cc2OC(F)F)CCN(C[C@H](CC#N)C(=O)O)CC1` (single isomer, unassigned) [Compound 163], 0.0385 µM.
As for `COC[C@H](CN1CCC(C(=O)Nc2ccc(Cl)cc2OC(F)F)(n2ncc(F)c2C(C)C)CC1)C(=O)O` (single isomer, unassigned) [Compound 170], the figure is 0.0331 µM.
`CO[C@H]1CC[C@@H]([C@H](CN2CCC(C(=O)Nc3ccc(Cl)cc3OC(F)F)(n3nccc3C(C)C)CC2)C(=O)O)CC1` (single isomer, unassigned) [Compound 184]: the IC50 worked out at 0.0773 µM.
In the case of `CO[C@H]1CC[C@H]([C@H](CN2CCC(C(=O)Nc3ccc(Cl)cc3OC(F)F)(n3nccc3C(C)C)CC2)C(=O)O)CC1` (single isomer, unassigned) [Compound 185], the IC50 amounted to 0.0574 µM.
Turning to `CC(C)c1ccnn1C1(C(=O)Nc2ccc(Cl)cc2OC(F)F)CCN([C@H]2CC[C@H](C(=O)O)OC2)CC1` (single isomer, unassigned) [Compound 192], the IC50 came to 0.0656 µM.
For `CO[C@]1(C(=O)O)C[C@@H](N2CCC(C(=O)Nc3ccc(Cl)cc3OC(F)F)(n3nccc3C(C)C)CC2)C1` (single isomer, unassigned) [Compound 194, (1r,3r)-3-[4-[[4-chloro-2-(difluoromethoxy)phenyl]carbamoyl]-4-(5-isopropylpyrazol-1-yl)-1-piperidyl]-1-methoxy-cyclobutanecarboxylic acid] the value was 0.0906 µM; for `CC(C)c1c(Cl)cnn1C1(C(=O)Nc2ccc(Cl)cc2OC(F)F)CCN(C[C@@H](C(=O)O)C2CCOCC2)CC1` (single isomer, unassigned) [Compound 197], 0.014 µM.
For `CC(C)c1c(Cl)cnn1C1(C(=O)Nc2ccc(Cl)cc2OC(F)F)CCN(C[C@H](C(=O)O)C2CCOCC2)CC1` (single isomer, unassigned) [Compound 198] the value was 0.0312 µM.
For `CC(C)c1ccnn1C1(C(=O)Nc2ccc(Cl)cc2OC(F)F)CCN(CC2(C(=O)O)CCOC2)CC1` (stereo in doubt) [Compound 23, (3S)-3-[[4-[[4-chloro-2-(difluoromethoxy)phenyl]carbamoyl]-4-(5-isopropylpyrazol-1-yl)-1-piperidyl]methyl]tetrahydrofuran-3-carboxylic acid], the IC50 was found to be 0.0284 µM.
As for `CC(C)c1ccnn1C1(C(=O)Nc2ccc(Cl)cc2OC(F)F)CCN(CC(=O)O)CC1` [Compound 1, 2-[4-[[4-chloro-2-(difluoromethoxy)phenyl]carbamoyl]-4-(5-isopropylpyrazol-1-yl)-1-piperidyl]acetic acid], the figure is 0.0548 µM; as for `CC(C)c1ccnn1C1(C(=O)Nc2ccc(Cl)cc2OC(F)F)CCN(CCC(C)(C)C(=O)O)CC1` [Compound 2, 4-[4-[[4-chloro-2-(difluoromethoxy)phenyl]carbamoyl]-4-(5-isopropylpyrazol-1-yl)-1-piperidyl]-2,2-dimethyl-butanoic acid], 0.0503 µM.
